Numbers after ± are expanded uncertainties.
What was measured:
[1] = refractive index (Na D-line) (dimensionless); settings: 101.33 kPa, Liquid, Standard Abbe refractometry
[2] = 101.33 kPa, Liquid; for viscosity: Concentric cylinders viscometry; for mass density: Vibrating tube method

CCCC[n+]1ccccc1.O=S(=O)([N-]S(=O)(=O)C(F)(F)F)C(F)(F)F [1-butylpyridinium bis[(trifluoromethyl)sulfonyl]imide]
Settings	mass density, [2] [kg/m3]	refractive index, [1]	viscosity, [2] [mPa·s]
293.15 K	1452.5 ± 2	1.44537 ± 0.0006	76.16 ± 1.8
298.15 K	1447.6 ± 2	1.44379 ± 0.0006	60.41 ± 1.4
303.15 K	1442.9 ± 2	1.44211 ± 0.0006	48.55 ± 1.1
308.15 K	1438.3 ± 2	1.44057 ± 0.00059	39.65 ± 0.9
313.15 K	1433.6 ± 2	1.43911 ± 0.00058	32.83 ± 0.74
318.15 K	1429 ± 2	1.43769 ± 0.00058	27.56 ± 0.62
323.15 K	1424.3 ± 2	1.43631 ± 0.00057	23.4 ± 0.53
328.15 K	1419.7 ± 1.9	1.43496 ± 0.00057	20.08 ± 0.45
333.15 K	1415.1 ± 1.9	1.43359 ± 0.00058	17.4 ± 0.39
338.15 K	1410.5 ± 1.9	–	15.2 ± 0.34
343.15 K	1406 ± 1.9	–	13.39 ± 0.3
348.15 K	1401.5 ± 1.9	–	11.87 ± 0.27
353.15 K	1397 ± 1.9	–	10.59 ± 0.24

CCCCCC[n+]1ccn(C)c1.O=S(=O)([N-]S(=O)(=O)C(F)(F)F)C(F)(F)F
298.15 K
Settings	mass density [kg/m3]	refractive index	viscosity [mPa·s]
[1]	–	1.4318 ± 0.00051	–
[2]	1370.8 ± 1.8	–	68.54 ± 1.6

CCCCCCCC[n+]1ccccc1.O=S(=O)([N-]S(=O)(=O)C(F)(F)F)C(F)(F)F [1-octylpyridinium bis((trifluoromethyl)sulfonyl)amide]
Settings	mass density, [2] [kg/m3]	refractive index, [1]	viscosity, [2] [mPa·s]
293.15 K	1331.3 ± 1.8	1.4487 ± 0.00059	149.53 ± 3.9
298.15 K	1326.8 ± 1.8	1.44723 ± 0.00059	114.34 ± 2.8
303.15 K	1322.5 ± 1.7	1.44568 ± 0.00059	88.74 ± 2.1
308.15 K	1318.2 ± 1.7	1.44413 ± 0.00059	70.13 ± 1.6
313.15 K	1313.9 ± 1.7	1.44262 ± 0.00059	56.33 ± 1.3
318.15 K	1309.6 ± 1.7	1.44115 ± 0.00058	45.9 ± 1
323.15 K	1305.3 ± 1.7	1.43972 ± 0.00058	37.91 ± 0.86
328.15 K	1301.1 ± 1.7	1.43827 ± 0.00058	31.7 ± 0.72
333.15 K	1296.8 ± 1.7	1.43681 ± 0.00058	26.8 ± 0.61
338.15 K	1292.6 ± 1.7	–	22.89 ± 0.52
343.15 K	1288.3 ± 1.7	–	19.73 ± 0.45
348.15 K	1284.1 ± 1.7	–	17.15 ± 0.39
353.15 K	1279.9 ± 1.7	–	15.02 ± 0.34

CCCCCCCCCCCC[n+]1ccccc1.O=S(=O)([N-]S(=O)(=O)C(F)(F)F)C(F)(F)F [1-dodecylpyridinium bis(trifluoromethylsulfonyl)imide]
Settings	mass density, [2] [kg/m3]	refractive index, [1]	viscosity, [2] [mPa·s]
293.15 K	1253.1 ± 1.6	1.45131 ± 0.0006	269.72 ± 8.3
298.15 K	1248.8 ± 1.6	1.44969 ± 0.00059	200.45 ± 5.7
303.15 K	1244.6 ± 1.6	1.44818 ± 0.00059	151.42 ± 4
308.15 K	1240.5 ± 1.6	1.44668 ± 0.00059	116.63 ± 2.9
313.15 K	1236.4 ± 1.6	1.44524 ± 0.00058	91.45 ± 2.2
318.15 K	1232.3 ± 1.6	1.44379 ± 0.00058	72.83 ± 1.7
323.15 K	1228.2 ± 1.6	1.44235 ± 0.00058	58.88 ± 1.3
328.15 K	1224.1 ± 1.6	1.4409 ± 0.00058	48.25 ± 1.1
333.15 K	1220.1 ± 1.6	1.43946 ± 0.00058	40.02 ± 0.9
338.15 K	1216 ± 1.6	–	33.59 ± 0.76
343.15 K	1212 ± 1.6	–	28.47 ± 0.64
348.15 K	1208 ± 1.5	–	24.36 ± 0.55
353.15 K	1204 ± 1.5	–	21.03 ± 0.48

CCCCCCCCCC[n+]1ccccc1.O=S(=O)([N-]S(=O)(=O)C(F)(F)F)C(F)(F)F [1-decylpyridinium bis(trifluoromethylsulfonyl)imide]
Settings	mass density, [2] [kg/m3]	refractive index, [1]	viscosity, [2] [mPa·s]
293.15 K	1287.8 ± 1.7	1.45007 ± 0.00059	201.44 ± 5.7
298.15 K	1283.5 ± 1.7	1.44859 ± 0.00059	151.93 ± 4
303.15 K	1279.2 ± 1.7	1.44703 ± 0.00059	116.39 ± 2.9
308.15 K	1275.1 ± 1.7	1.44546 ± 0.00059	90.82 ± 2.1
313.15 K	1270.9 ± 1.7	1.44391 ± 0.00059	72.07 ± 1.6
318.15 K	1266.8 ± 1.6	1.44239 ± 0.00059	58.06 ± 1.3
323.15 K	1262.6 ± 1.6	1.44091 ± 0.00059	47.46 ± 1.1
328.15 K	1258.5 ± 1.6	1.43943 ± 0.00059	39.29 ± 0.89
333.15 K	1254.3 ± 1.6	1.43796 ± 0.00059	32.91 ± 0.74
338.15 K	1250.2 ± 1.6	–	27.86 ± 0.63
343.15 K	1246.1 ± 1.6	–	23.81 ± 0.54
348.15 K	1242 ± 1.6	–	20.54 ± 0.46
353.15 K	1237.9 ± 1.6	–	17.85 ± 0.4
